Test results: patent US20250388564A1, “METHODS OF MANUFACTURING PYRIDAZINONE COMPOUNDS” (Edgewise Therapeutics, Inc., priority 2022, published 2025)
≈ marks a conversion by molar mass, not a printed value.

Assay: Solubility of Compound IX in solvents (Table 1)
Type: physicochemical
Conditions: for solubility: organic solvent or mixture

- solubility (1,4-dioxane, solvent 1,4-dioxane (entry 8)): 2900 µg/mL (≈ 10.7 mM)
- solubility (ACN, solvent ACN (entry 6)): 1500 µg/mL (≈ 5.51 mM)
- solubility (DCE, solvent DCE (entry 1)): 150 µg/mL (≈ 0.551 mM)
- solubility (DCM, solvent DCM (entry 17)): 300 µg/mL (≈ 1.1 mM)
- solubility (DMA, solvent DMA (entry 19)): 13000 µg/mL (≈ 47.8 mM)
- solubility (DME, solvent DME (entry 4)): 3260 µg/mL (≈ 12 mM)
- solubility (DME, solvent DME (entry 21)): 10000 µg/mL (≈ 36.7 mM)
- solubility (DMF, solvent DMF (entry 18)): 21000 µg/mL (≈ 77.2 mM)
- solubility (DMSO, solvent DMSO (entry 10)): 45000 µg/mL (≈ 165 mM)
- solubility (EA, solvent EA (entry 16)): 700 µg/mL (≈ 2.57 mM)
- solubility (EtOH, solvent EtOH (entry 12)): 1000 µg/mL (≈ 3.67 mM)
- solubility (MTBE, solvent MTBE (entry 15)): 100 µg/mL (≈ 0.367 mM)
- solubility (MeOH, solvent MeOH (entry 11)): 2500 µg/mL (≈ 9.18 mM)
- solubility (NMP, solvent NMP (entry 20)): 44000 µg/mL (≈ 162 mM)
- solubility (THF, solvent THF (entry 5)): 2730 µg/mL (≈ 10 mM)
- solubility (acetone, solvent Acetone (entry 2)): 1590 µg/mL (≈ 5.84 mM)
- solubility (i-PrOH, solvent i-PrOH (entry 13)): 500 µg/mL (≈ 1.84 mM)
- solubility (in words) (overall statement on Table 1): limited solubility
- solubility (t-BuOH, solvent t-BuOH (entry 14)): 100 µg/mL (≈ 0.367 mM)
- solubility (thietane 1,1-dioxide, solvent thietane 1,1-dioxide (entry 3)): 6350 µg/mL (≈ 23.3 mM)
Structure (SMILES): O=c1ccc(-c2cnc(OCC(F)(F)F)nc2)n[nH]1 [Compound IX, 6-[2-(2,2,2-trifluoroethoxy)pyrimidin-5-yl]-2,3-dihydropyridazin-3-one]
